# Assay results as given in ChEMBL document CHEMBL1777730, “Antimycobacterial activity of novel 1,2,4-oxadiazole-pyranopyridine/chromene hybrids generated by chemoselective 1,3-dipolar cycloadditions of nitrile oxides” (2011).
# System: Mycobacterium tuberculosis
# Assay: Antimycobacterial activity against Mycobacterium tuberculosis H37Rv by agar dilution method
# Assay type: functional
row,SMILES,MIC
1,CN1CC2=C(OC(N)=C(c3nc(-c4ccc(Cl)cc4)no3)C2c2ccccc2)/C(=C/c2ccccc2)C1 (centres undefined),12.3 µM
2,CN1CC2=C(OC(N)=C(c3nc(-c4ccc(Cl)cc4)no3)C2c2ccc(Cl)cc2)/C(=C/c2ccc(Cl)cc2)C1 (centres undefined),0.35 µM
3,Cc1ccc(/C=C2\CN(C)CC3=C2OC(N)=C(c2nc(-c4ccc(Cl)cc4)no2)C3c2ccc(C)cc2)cc1 (centres undefined),3.28 µM
4,COc1ccc(/C=C2\CN(C)CC3=C2OC(N)=C(c2nc(-c4ccc(Cl)cc4)no2)C3c2ccc(OC)cc2)cc1 (centres undefined),22 µM
5,Cc1ccccc1/C=C1\CN(C)CC2=C1OC(N)=C(c1nc(-c3ccc(Cl)cc3)no1)C2c1ccccc1C (centres undefined),11.6 µM
6,COc1ccccc1/C=C1\CN(C)CC2=C1OC(N)=C(c1nc(-c3ccc(Cl)cc3)no1)C2c1ccccc1OC (centres undefined),5.5 µM
7,CN1CC2=C(OC(N)=C(c3nc(-c4ccc(Cl)cc4)no3)[C@@H]2c2cccc(F)c2)/C(=C/c2cccc(F)c2)C1,0.73 µM
8,CN1CC2=C(OC(N)=C(c3nc(-c4ccc(Cl)cc4)no3)C2c2ccc(Cl)cc2Cl)/C(=C/c2ccc(Cl)cc2Cl)C1 (centres undefined),0.31 µM
9,CN1CC2=C(OC(N)=C(c3nc(-c4ccc(Cl)cc4)no3)C2c2ccc(N(C)C)cc2)/C(=C/c2ccc(N(C)C)cc2)C1 (centres undefined),5.26 µM
10,NC1=C(c2nc(-c3ccccc3)no2)C(c2ccc(Cl)cc2)C2=C(O1)/C(=C/c1ccc(Cl)cc1)CCC2 (centres undefined),23.7 µM
11,COc1ccc(/C=C2\CCCC3=C2OC(N)=C(c2nc(-c4ccccc4)no2)[C@@H]3c2ccc(OC)cc2)cc1,24.1 µM
12,NC1=C(c2nc(-c3ccccc3)no2)C(c2ccc(F)cc2)C2=C(O1)/C(=C/c1ccc(F)cc1)CCC2 (centres undefined),12.6 µM
13,Cc1ccccc1/C=C1\CCCC2=C1OC(N)=C(c1nc(-c3ccccc3)no1)C2c1ccccc1C (centres undefined),> 25 µM
14,COc1ccccc1/C=C1\CCCC2=C1OC(N)=C(c1nc(-c3ccccc3)no1)C2c1ccccc1OC (centres undefined),24.1 µM
15,NC1=C(c2nc(-c3ccccc3)no2)C(c2cccc(F)c2)C2=C(O1)/C(=C/c1cccc(F)c1)CCC2 (centres undefined),12.6 µM
16,N#CC1=C(N)OC2=C(CCC/C2=C\c2ccccc2)C1c1ccccc1 (centres undefined),> 25 µM
17,N#CC1=C(N)OC2=C(CCC/C2=C\c2ccc(Cl)cc2)C1c1ccc(Cl)cc1 (centres undefined),> 25 µM
18,Cc1ccc(/C=C2\CCCC3=C2OC(N)=C(C#N)C3c2ccc(C)cc2)cc1 (centres undefined),> 25 µM
19,COc1ccc(/C=C2\CCCC3=C2OC(N)=C(C#N)C3c2ccc(OC)cc2)cc1 (centres undefined),> 25 µM
20,N#CC1=C(N)OC2=C(CCC/C2=C\c2ccc(F)cc2)C1c1ccc(F)cc1 (centres undefined),> 25 µM
21,N#CC1=C(N)OC2=C(CCC/C2=C\c2ccccc2Cl)C1c1ccccc1Cl (centres undefined),> 25 µM
22,CC[C@@H](CO)NCCN[C@@H](CC)CO [ETHAMBUTOL],7.64 µM
23,NNC(=O)c1ccncc1 [ISONIAZID],0.36 µM
24,CO[C@H]1/C=C/O[C@@]2(C)Oc3c(C)c(O)c4c(O)c(c(/C=N/N5CCN(C)CC5)c(O)c4c3C2=O)NC(=O)/C(C)=C\C=C\[C@H](C)[C@H](O)[C@@H](C)[C@@H](O)[C@@H](C)[C@H](OC(C)=O)[C@@H]1C [RIFAMPIN],0.12 µM
